“Also recorded” adds a separate entry of the source.
Columns and labels:
[1] = system: human Th17 cell differentiation; assay: Human Th17 cell differentiation (FACS, FIG. 2); type: cell-based; settings: FIG. 2, FACS, 0.5 μM; listed as NCGC00242624
Procedure: • 1) S2 cell reporter system: Identified hits from HTS are further screened and their specificity confirmed by testing against RORγ-luc, VP16-luc, RORα-luc, and DHR3-luc reporter S2 cell lines. Compounds either having no activity on VP16, RORα, and DHR3 or having ten times higher IC50 values on such reporters are selected for further tests. • 2) Cytokine induced mouse Th17 cells differentiation. Effects on mouse endogenous RORγt in a relevant physiological setting were determined by testing compounds in the Th17 cell differentiation assay. Compounds having RORγt inhibitory activity are predicted to suppress Th17 cell differentiation. Th1 or regulatory T cell differentiation was used as a counter-screen method to select specific compounds that only affect Th17 cell differentiation without having pleiotrophic effects on general T cell proliferation or cytokine production. • 3) ROR dependent Th17 cell differentiation. Compounds were further tested, by examining their effects on T cells expressing RORα or RORγ. […] Compounds affecting IL17a production or ROR regulatory pathways, however, are expected to inhibit both. • 4) Human Th17 cell differentiation. Compound effects on human RORγt will be tested by treating human cord blood CD4 T cells with select compounds to determine if such compounds alter differentiation into Th17 lineages.
For Th1 differentiation, IL12 (10 ng/ml) and IL2 (100 U/ml) were added to naive CD4 T cell cultures instead of TGFβ and IL6.

[2] = Half-life in Human Liver Microsomes (HLM); type: in vitro ADME
Procedure: Test compounds (1 μM) are incubated with 3.3 mM MgCl2 and 0.78 mg/mL HLM (HL101) in 100 mM potassium phosphate buffer (pH 7.4) at 37° C. on the 96-deep well plate. The reaction mixture is split into two groups, a non-P450 and a P450 group. NADPH is only added to the reaction mixture of the P450 group. An aliquot of samples of the P450 group is collected at 0, 10, 30, and 60 min time points, where the 0 min time point indicated the lime at which NADPH is added into the reaction mixture of the P450 group. […] Collected aliquots are extracted with acetonitrile solution containing an internal standard. […] The compound concentration in supernatant is measured by LC/MS/MS system.
The half-life value is obtained by plotting the natural logarithm of the peak area ratio of compounds/internal standard versus time. The slope of the line of best fit through the points yields the rate of metabolism (k). This is converted to a half-life value using following equations: Half-life=ln 2/k

- % Remaining @ 60 min ([2]; 1 μM compound, 0.78 mg/mL HLM, 37° C., 60 min): 51.36%
- half-life at 1 μM ([2]; human, human liver microsomes, pH 7.4, 1 μM compound, 0.78 mg/mL HLM, 37° C., Half-life=ln 2/k): 1.07 h
- microsomal CLint at 1 μM ([2]; human, human liver microsomes, pH 7.4, 1 μM compound, 0.78 mg/mL HLM, 37° C., read-out: CLint (uM/Min/mg proteins)): 21.6 µL/min/mg
Compound: COc1cc(O)c(C(CC(=O)N2CC(C)CC(C)C2)c2ccc(C(=O)O)cc2)c(OC)c1 (stereo not drawn) [Compound 99, 4-(3-(3,5-Dimethylpiperidin-1-yl)-1-(2-hydroxy-4,6-dimethoxyphenyl)-3-oxopropyl)benzoic acid]
- human Th17 cell differentiation [1]: selectively suppress human Th17; also recorded: suppresses human Th17 cell differentiation to a degree similar to that of NCGC00238427; also recorded: selectively suppresses human Th17 cell differentiation
- stability compared with compounds 150 and 157 ([2]; HLM, Table 3 data): better or improved stability over the compounds with IDs 150 and 157
- stability compared with verapamil ([2]; HLM, Table 3 data): improved stability with respect to verapamil

Reference: patent US9765063B2, “Amido compounds as RORγt modulators and uses thereof” (New York University, priority 2011, dated 2017)
